Source: patent US9624161B2 (priority 2009, dated 2017)
Entries after “also recorded” stand apart in the source; their conditions may differ.

Legend:
[1] = system: intact male rats; assay: Bone preservation despite reduction of LH and testosterone in rats (oral); format: in vivo, rat
[2] = system: intact and orchiectomized (ORX) male Sprague-Dawley rats; assay: Suppression of LH and testosterone in intact and ORX rats, 14-day subcutaneous dosing; format: in vivo, rat; conditions: for Serum testosterone: LLOQ 0.08 ng/mL
Method: An in vivo dose-response study was conducted to evaluate the effect of Compound IV on LH suppression in intact and orchiectomized (ORX) male rats.
Male Sprague-Dawley rats weighing approximately 200 g were maintained on a 12-h light/dark cycle with food (2016 Teklad Global 16% Protein Rodent Diet, Harlan, Madison, Wis.) and water available ad libitum. The animal protocol was reviewed and approved by the Institutional Animal Care and Use Committee of the University of Tennessee.
The test article for this study was weighed and dissolved in 10% DMSO (Fisher) diluted with PEG 300 (Acros Organics, NJ) to prepare the appropriate dose formulations. For this study, sixty (60) male Sprague-Dawley rats were randomized by body weight, and assigned to one of the twelve treatment groups (n=5 animals/group). The animals were housed in groups of 2 to 3 animals per cage. Control groups (intact and orchidectomized (ORX)) were administered vehicle daily. […]
After a 14-day dosing regimen, the animals were sacrificed under anesthesia (ketamine/xylazine, 87:13 mg/kg) and body weights were recorded. In addition, ventral prostate, seminal vesicles, and levator ani muscle were removed, cleaned of extraneous tissue, and individually weighed. Organ weight were normalized to body weight and expressed as a percentage of intact control. Blood was collected from the abdominal aorta under isoflurane anesthesia and allowed to clot. Serum was separated by centrifugation and stored at −80° C. prior to determination of serum hormone levels. Serum luteinizing hormone (LH) and follicle stimulating hormone (FSH) concentrations were determined by the Rat Pituitary Luminex Assay (Millipore, Billerica, Mass.) according to manufacturer's directions. The lower limit of quantitation for this assay was 3.2 pg/mL for LH and 32 pg/mL for FSH. Testosterone was measured by a Testosterone EIA (Alpco Diagnostics, Salem, N.H.) with a LLOQ of 0.08 ng/mL. Serum hormone values below the lower limit of quantitation (BLOQ) were omitted from analysis of group means. Therefore, the reported value for LH and T in the groups with samples BLOQ is higher than the actual value. This method of analysis provided the most conservative estimate of LH and T suppression. Fisher's Least Significant Difference test was used to compare individual dose groups to the intact and ORX vehicle control groups. Significance was defined a priori as a P-value <0.05.

[3] = system: male Sprague-Dawley rats; assay: Recovery of testosterone levels after 3-day oral dosing in rats; format: in vivo, rat; conditions: 1 mg/kg oral for three days; no recovery
Excerpt: Thirty-five (35) male Sprague-Dawley rats weighing approximately 200 g were maintained on a 12-h light/dark cycle with food (2016 Teklad Global 16% Protein Rodent Diet, Harlan, Madison, Wis.) and water available ad libitum. The animal protocol was reviewed and approved by the Institutional Animal Care and Use Committee of the University of Tennessee.
The test article for this study was weighed and dissolved in PEG 300 (100%) (Acros Organics, NJ) to prepare the appropriate dose formulations. Animals were randomly assigned to one of the […] treatment groups (n=5 animals/group). The animals were housed in groups of 2 to 3 animals per cage. Group 1 was sacrificed at the initiation of the study (Day 1) for determination of baseline testosterone levels in intact animals. Groups 2-7 received daily doses of 1, 3, or 30 mg/kg via oral gavage (˜200 uL) for three days. Groups 2, 3, and 4 were sacrificed on Day 4 to measure maximal testosterone suppression. Groups 5, 6, and 7 were allowed to recover for 14 days with a drug free washout period.

[4] = system: sexually mature male cynomolgus monkeys; assay: 39-week oral pharmacology and toxicology study in male cynomolgus monkeys (13-week interim); format: in vivo, cynomolgus monkey
[5] = system: healthy young male volunteers; assay: Study 1: 56 day proof of concept study in healthy young male volunteers (600, 1000, 1500 mg); format: in vivo, human; conditions: for BSAP change / FSH change / Free testosterone change / Osteocalcin change / SHBG change / Total testosterone change / serum PSA change: castrated subjects
Method: A 56 day, proof of concept study of Compound IV was conducted in healthy young male volunteers. (Table 22 and Table 23 below). […] The free testosterone levels were reduced to levels below the levels expected from surgical castration or those expected from chemical castration with LHRH agonists or antagonists. This is due to a dose dependent increase in sex hormone binding globulin (SHBG) that is observed with Compound IV.

[6] = system: estrogen related receptor (ERR-α, ERR-β and ERR-γ); assay: Estrogen related receptor transactivation, DES versus Compound IV; format: cell-based; conditions: FIG. 12C
[7] = system: rats; assay: Single and repeated oral dose toxicity in rats (up to 28 days); format: in vivo, rat
Excerpt: (§1) Compound IV was well-tolerated by rats and dogs after single and repeated oral administration (up to 28 days).

[8] = system: isolated canine Purkinje fibers; assay: Action potential duration in isolated canine Purkinje fibers in vitro; conditions: 10 and 100 μM
Method: Compound IV exerts little or no in vitro inhibitory effects (IC50≧300 μM) on the hERG channel.

[9] = target: T1, Human 17β-HSD5 (Homo sapiens, UniProt P42330); assay: 17β-HSD5 enzyme activity (14C androstenedione to testosterone, TLC); format: biochemical; conditions: purified protein, NADPH (FIG. 3)
T1 construct: GST (inferred from pGEX 4t1 vector; own knowledge) (N); made in house

[10] = system: human peripheral blood lymphocytes; assay: Chromosomal aberrations in human peripheral blood lymphocytes in vitro; format: cell-based; conditions: concentrations up to 200 μM
Excerpt: as §1

[11] = 600 mg, sufficiently compliant subjects
[12] = 1000 mg, sufficiently compliant subjects
[13] = 1500 mg, sufficiently compliant subjects

T1 sequence (P42330 whole entry): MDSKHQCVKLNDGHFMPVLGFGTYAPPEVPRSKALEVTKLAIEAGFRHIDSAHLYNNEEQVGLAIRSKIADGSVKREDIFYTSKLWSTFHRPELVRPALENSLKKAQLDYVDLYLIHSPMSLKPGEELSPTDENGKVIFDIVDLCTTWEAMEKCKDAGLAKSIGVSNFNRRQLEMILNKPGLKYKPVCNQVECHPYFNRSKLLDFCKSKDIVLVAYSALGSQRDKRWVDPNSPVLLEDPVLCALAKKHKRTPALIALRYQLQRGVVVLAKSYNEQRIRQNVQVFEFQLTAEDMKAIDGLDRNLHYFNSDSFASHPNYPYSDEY

O=C(c1ccc(O)c(F)c1)N(c1ccc(O)cc1)c1ccc(F)cc1 [Compound IV, 3-fluoro-N-(4-fluorophenyl)-4-hydroxy-N-(4-hydroxyphenyl)benzamide]
Bone loss associated with LH suppression [1]: completely prevented the bone loss
Serum testosterone ([2]; Intact rats, 10 mg/kg per day s.c., 14 days): BLOQ
Serum testosterone ([2]; Intact rats, 30 mg/kg per day s.c., 14 days): BLOQ
Serum testosterone ([2]; ORX rats, all dose groups (0.3-30 mg/kg/day)): BLOQ
Suppression of serum testosterone ([2]; intact male rats, 3, 10 and 300 mg/kg, after 24 h, 72 h and 168 h (FIG. 9)): Rapid and potent suppression
Doses with significant reduction of FSH levels ([2]; intact rats, 14 days s.c.): ≥ 10 mg/kg/day
Doses with significant reduction of testosterone levels ([2]; intact rats, 14 days s.c.): ≥ 3 mg/kg per day
Serum testosterone after dosing [3]: No significant suppression
Monkeys with testosterone below the limit of quantification ([4]; 100 mg/kg/day oral, after 90 days, Group 4): 6 of 10
Initial testosterone flare ([4]; any Compound IV dose, up to 100 mg/kg/day): not observed
% subjects castrated [5, 11]: 0% ^
BSAP % change from baseline to final observation [5, 11]: −18.7 ± 18.8%
FSH % change from baseline to final observation [5, 11]: −48.4 ± 53.9%
Free testosterone % change from baseline to final observation [5, 11]: −32.9 ± 43.2%
Osteocalcin % change from baseline to final observation [5, 11]: −32.8 ± 11.1%
SHBG % change from baseline to final observation [5, 11]: +363 ± 139%
Total testosterone % change from baseline to final observation [5, 11]: +22.1 ± 51.9%
serum PSA % change from baseline to final observation [5, 11]: −43.8 ± 21.1%
BSAP change ([5]; 1000 mg): 6.0 ± 29%
FSH change ([5]; 1000 mg): −91 ± 5.2%
Free testosterone change ([5]; 1000 mg): −98.2 ± 0.146%
Osteocalcin change ([5]; 1000 mg): −20 ± 15%
SHBG change ([5]; 1000 mg): 471 ± 102%
Total testosterone change ([5]; 1000 mg): −94.7 ± 0.228%
serum PSA change ([5]; 1000 mg): −52 ± 28%
% subjects castrated [5, 12]: 75% ^
BSAP % change from baseline to final observation [5, 12]: −5.97 ± 31.6%
FSH % change from baseline to final observation [5, 12]: −78.4 ± 29.4%
Free testosterone % change from baseline to final observation [5, 12]: −86.4 ± 26.4%
Osteocalcin % change from baseline to final observation [5, 12]: −21.4 ± 14.4%
SHBG % change from baseline to final observation [5, 12]: +446 ± 130%
Total testosterone % change from baseline to final observation [5, 12]: −63.0 ± 59.9%
serum PSA % change from baseline to final observation [5, 12]: −42.8 ± 30.2%
Subjects that reached castrate levels of total testosterone ([5]; 1500 mg dose group, by Day 28, sufficiently compliant subjects): 90%
BSAP change ([5]; 1500 mg): −19 ± 21%
FSH change ([5]; 1500 mg): −88 ± 4.8%
Free testosterone change ([5]; 1500 mg): −97.7 ± 0.155%
Osteocalcin change ([5]; 1500 mg): −23 ± 17%
SHBG change ([5]; 1500 mg): 524 ± 212%
Total testosterone change ([5]; 1500 mg): −92.8 ± 0.65%
serum PSA change ([5]; 1500 mg): −43 ± 24%
% subjects castrated [5, 13]: 92% ^
BSAP % change from baseline to final observation [5, 13]: −21.1 ± 17.0%
FSH % change from baseline to final observation [5, 13]: −89.7 ± 5.07%
Free testosterone % change from baseline to final observation [5, 13]: −97.5 ± 1.64%
Osteocalcin % change from baseline to final observation [5, 13]: −18.2 ± 18.7%
SHBG % change from baseline to final observation [5, 13]: +591 ± 258%
Total testosterone % change from baseline to final observation [5, 13]: −90.6 ± 9.67%
serum PSA % change from baseline to final observation [5, 13]: −48.1 ± 17.0%
SHBG increase over baseline ([5]; each dose arm (600, 1000, 1500 mg), Study 1): 300-600%
Effect on estrogen related receptor (ERR) transactivation [6]: does not; also recorded: failed to crossreact
Tolerability after single and repeated oral administration [7]: well-tolerated
APD50 [8]: dose-dependently decreased
APD90 [8]: dose-dependently decreased
Effect on 17β-HSD5 enzyme activity [9]: partial inhibitory effect
Structural or numeric chromosomal aberrations [10]: did not induce
